Assay results reported in patent US7138361B2, “Herbicidal heterocycles” (E. I. du Pont de Nemours and Company, priority 2000, dated 2006).

Assays:
Format in all cases: in vivo
[1] = system: barnyardgrass (Echinochloa crus-galli); test: Test B preemergence
In short: (§1)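 Pre: seeded pots sprayed, chemical in non-phytotoxic solvent/surfactant mix. Post: plants 2–18 cm, 1–4 leaf, same formulation. Greenhouse 13–15 d; visual % control vs untreated, 0–100 scale.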

[2] = system: crabgrass (Digitaria sanguinalis); test: Test B preemergence
In short: as §1

[3] = system: pigweed (Amaranthus retroflexus); test: Test B preemergence
In short: as §1

[4] = system: cocklebur (Xanthium strumarium); test: Test B preemergence
In short: as §1

[5] = system: Surinam grass (Brachiaria decumbens); test: Test B preemergence
In short: as §1

[6] = system: rice (Oryza saliva); test: Test B preemergence
In short: as §1

[7] = system: corn (Zea mays); test: Test B preemergence
In short: as §1

[8] = system: giant foxtail (Setaria faberii); test: Test B preemergence
In short: as §1

[9] = system: lambsquarters (Chenopodium album); test: Test B preemergence
In short: as §1

[10] = system: morning glory (Ipomoea hederacea); test: Test B preemergence
In short: as §1

[11] = system: velvetleaf (Abutilon theophrasti); test: Test B preemergence
In short: as §1

[12] = system: crabgrass (Digitaria sanguinalis); test: Test C preemergence; details: for Plant response rating (0 to 100), Crabgrass: visual evaluation after 12 to 14 days
In short: (§2)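 Compounds in non-phytotoxic solvent with surfactant applied preemergence to planted seeds and postemergence to plants at 1- to 4-leaf stage (2–18 cm). Kept in greenhouse 12–14 days, then visually rated against controls on a 0 (no effect) to 100 (complete control) scale.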

[13] = system: soybean (Glycine max); test: Test C preemergence; details: for Plant response rating (0 to 100), Soybean: visual evaluation after 12 to 14 days
In short: as §2

[14] = system: pigweed (Amaranthus retroflexus); test: Test C preemergence; details: for Plant response rating (0 to 100), Pigweed: visual evaluation after 12 to 14 days
In short: as §2

[15] = system: goosegrass (Eleusine indica); test: Test C preemergence; details: for Plant response rating (0 to 100), Goosegrass: visual evaluation after 12 to 14 days
In short: as §2

[16] = system: woolly cupgrass (Eriochloa villosa); test: Test C preemergence; details: for Plant response rating (0 to 100), Cupgrass, Woolly: visual evaluation after 12 to 14 days
In short: as §2

[17] = system: cocklebur (Xanthium strumarium); test: Test C preemergence
In short: as §2

[18] = system: Surinam grass (Brachiaria decumbens); test: Test C preemergence; details: for Plant response rating (0 to 100), Surinam grass: visual evaluation after 12 to 14 days
In short: as §2

[19] = system: lambsquarters (Chenopodium album); test: Test C preemergence; details: for Plant response rating (0 to 100), Lambsquarters: visual evaluation after 12 to 14 days
In short: as §2

[20] = system: common ragweed (Ambrosia elatior); test: Test C preemergence; details: for Plant response rating (0 to 100), Ragweed, Common: visual evaluation after 12 to 14 days
In short: as §2

[21] = system: Nightshade; test: Test C preemergence
[22] = Preemergence, Rate 500 g/ha, scale 0 to 100, 0 no effect, 100 complete control
[23] = preemergence, Rate 125 g/ha, scale of 0 to 100 where 0 is no effect and 100 is complete control, 13 to 15 days
[24] = Preemergence, Rate 500 g/ha, scale 0 to 100
[25] = Rate 62 g/ha, scale 0 to 100, 0 no effect, 100 complete control
[26] = preemergence, Rate 125 g/ha, scale 0 to 100, 0 no effect, 100 complete control
[27] = Rate 125 g/ha, scale 0 to 100, 0 no effect, 100 complete control
[28] = preemergence, Rate 62 g/ha, scale 0 to 100
[29] = preemergence, Rate 250 g/ha, scale 0 to 100, 0 no effect, 100 complete control

O=C1C(n2ccc(C3CCCCC3)n2)SCN1c1cccc(C(F)(F)F)c1 (stereo not drawn) [Compound 52]
Plant response rating, Barnyardgrass [1, 22]: 100
Plant response rating, Barnyardgrass [1, 23]: 0
Plant response rating, Crabgrass [2, 22]: 100
Plant response rating, Crabgrass [2, 23]: 100
Plant response rating, Pigweed [3, 22]: 30
Plant response rating, Pigweed [3, 23]: 0
Plant response rating, Cocklebur [4, 22]: 0
Plant response rating, Cocklebur [4, 23]: 0
Plant response rating, Surinam grass [5, 22]: 0
Plant response rating, Surinam grass [5, 23]: 0
Plant response rating, Rice [6, 22]: 0
Plant response rating, Rice [6, 23]: 0
Plant response rating, Corn [7, 22]: 20
Plant response rating, Corn [7, 23]: 0
Plant response rating, Foxtail, Giant [8, 22]: 100
Plant response rating, Foxtail, Giant [8, 23]: 90
Plant response rating, Lambsquarters [9, 22]: 100
Plant response rating, Lambsquarters [9, 23]: 100
Plant response rating, Morningglory [10, 22]: 0
Plant response rating, Morningglory [10, 23]: 0
Plant response rating, Velvetleaf [11, 22]: 0
Plant response rating, Crabgrass [12, 24]: 100
Plant response rating, Crabgrass [12, 25]: 90
Plant response rating (0 to 100), Crabgrass ([12]; preemergence, Rate 250 g/ha): 100
Plant response rating, Crabgrass [12, 26]: 100
Plant response rating, Soybean [13, 24]: 60
Plant response rating (0 to 100), Soybean ([13]; preemergence, Rate 250 g/ha): 20
Plant response rating, Soybean [13, 26]: 20
Plant response rating, Pigweed [14, 24]: 100
Plant response rating (0 to 100), Pigweed ([14]; preemergence, Rate 250 g/ha): 30
Plant response rating, Pigweed [14, 26]: 0
Plant response rating, Goosegrass [15, 24]: 100
Plant response rating, Goosegrass [15, 25]: 90
Plant response rating (0 to 100), Goosegrass ([15]; preemergence, Rate 250 g/ha): 100
Plant response rating, Goosegrass [15, 26]: 90
Plant response rating, Cupgrass, Woolly [16, 24]: 100
Plant response rating, Cupgrass, Woolly [16, 25]: 30
Plant response rating (0 to 100), Cupgrass, Woolly ([16]; preemergence, Rate 250 g/ha): 60
Plant response rating, Cupgrass, Woolly [16, 26]: 50
Plant response rating, Cocklebur [17, 24]: 30
Plant response rating, Cocklebur [17, 25]: 0
Plant response rating, Cocklebur [17, 26]: 0
Plant response rating, Surinam grass [18, 24]: 50
Plant response rating, Surinam grass [18, 25]: 0
Plant response rating (0 to 100), Surinam grass ([18]; preemergence, Rate 250 g/ha): 30
Plant response rating, Surinam grass [18, 26]: 20
Plant response rating, Lambsquarters [19, 24]: 100
Plant response rating, Lambsquarters [19, 25]: 0
Plant response rating (0 to 100), Lambsquarters ([19]; preemergence, Rate 250 g/ha): 100
Plant response rating, Lambsquarters [19, 26]: 80
Plant response rating, Ragweed, Common [20, 24]: 50
Plant response rating (0 to 100), Ragweed, Common ([20]; preemergence, Rate 250 g/ha): 40
Plant response rating, Ragweed, Common [20, 26]: 0
Plant response rating, Nightshade ([21]; Rate 62 g/ha; scale 0 to 100, 0 no effect, 100 complete control): 30
Plant response rating, Nightshade [21, 27]: 30
Plant response rating, Nightshade ([21]; Rate 500 g/ha, scale 0 to 100): 50

CCC(C)Oc1cccc(N2CCC(n3ccc(C(C)(C)C)n3)C2=O)c1 (stereo not drawn) [Compound 127]
Plant response rating, Barnyardgrass [1, 22]: 100
Plant response rating, Barnyardgrass [1, 23]: 0
Plant response rating, Crabgrass [2, 22]: 100
Plant response rating, Crabgrass [2, 23]: 100
Plant response rating, Pigweed [3, 22]: 100
Plant response rating, Pigweed [3, 23]: 0
Plant response rating, Cocklebur [4, 22]: 0
Plant response rating, Cocklebur [4, 23]: 0
Plant response rating, Surinam grass [5, 22]: 70
Plant response rating, Surinam grass [5, 23]: 0
Plant response rating, Rice [6, 22]: 50
Plant response rating, Rice [6, 23]: 0
Plant response rating, Corn [7, 22]: 0
Plant response rating, Corn [7, 23]: 0
Plant response rating, Foxtail, Giant [8, 22]: 100
Plant response rating, Foxtail, Giant [8, 23]: 70
Plant response rating, Lambsquarters [9, 22]: 100
Plant response rating, Lambsquarters [9, 23]: 90
Plant response rating, Morningglory [10, 22]: 0
Plant response rating, Morningglory [10, 23]: 0
Plant response rating, Velvetleaf [11, 22]: 0
Plant response rating, Velvetleaf [11, 23]: 0
Plant response rating, Crabgrass [12, 27]: 70
Plant response rating, Crabgrass [12, 28]: 50
Plant response rating (0 to 100), Crabgrass ([12]; preemergence, Rate 500 g/ha): 100
Plant response rating, Crabgrass [12, 29]: 100
Plant response rating, Soybean [13, 27]: 0
Plant response rating, Soybean [13, 28]: 0
Plant response rating (0 to 100), Soybean ([13]; preemergence, Rate 500 g/ha): 0
Plant response rating, Soybean [13, 29]: 0
Plant response rating, Pigweed [14, 27]: 0
Plant response rating, Pigweed [14, 28]: 0
Plant response rating (0 to 100), Pigweed ([14]; preemergence, Rate 500 g/ha): 0
Plant response rating, Pigweed [14, 29]: 0
Plant response rating, Goosegrass [15, 27]: 30
Plant response rating, Goosegrass [15, 28]: 10
Plant response rating (0 to 100), Goosegrass ([15]; preemergence, Rate 500 g/ha): 100
Plant response rating, Goosegrass [15, 29]: 100
Plant response rating, Cupgrass, Woolly [16, 27]: 50
Plant response rating, Cupgrass, Woolly [16, 28]: 0
Plant response rating (0 to 100), Cupgrass, Woolly ([16]; preemergence, Rate 500 g/ha): 100
Plant response rating, Cupgrass, Woolly [16, 29]: 90
Plant response rating, Cocklebur [17, 27]: 0
Plant response rating, Cocklebur [17, 28]: 0
Plant response rating (0 to 100), Cocklebur ([17]; preemergence, Rate 500 g/ha, visual evaluation after 12 to 14 days): 20
Plant response rating, Cocklebur [17, 29]: 0
Plant response rating, Surinam grass [18, 27]: 0
Plant response rating, Surinam grass [18, 28]: 0
Plant response rating (0 to 100), Surinam grass ([18]; preemergence, Rate 500 g/ha): 100
Plant response rating, Surinam grass [18, 29]: 20
Plant response rating, Lambsquarters [19, 27]: 80
Plant response rating, Lambsquarters [19, 28]: 20
Plant response rating (0 to 100), Lambsquarters ([19]; preemergence, Rate 500 g/ha): 100
Plant response rating, Lambsquarters [19, 29]: 100
Plant response rating, Ragweed, Common [20, 27]: 0
Plant response rating, Ragweed, Common [20, 28]: 0
Plant response rating (0 to 100), Ragweed, Common ([20]; preemergence, Rate 500 g/ha): 10
Plant response rating, Ragweed, Common [20, 29]: 10
Plant response rating, Nightshade ([21]; Rate 62 g/ha, scale 0 to 100): 0
Plant response rating, Nightshade ([21]; Rate 125 g/ha; scale 0 to 100, 0 no effect, 100 complete control): 0
Plant response rating, Nightshade ([21]; Rate 250 g/ha, scale 0 to 100, 0 no effect, 100 complete control): 0
